A short description of this data set: passive permeability, PAMPA, ADME assay (AID 1508612). To be noted: pH 7.4, 30.0 min, 50.0 µM. Background: In PAMPA a lipid-coated filter parts donor from acceptor wells.

The source of these data is PubChem BioAssay AID1508612.

Turning to `Cc1c(-c2cccc3c(CCCOc4cccc5ccccc45)c(C(=O)O)n(Cc4cccnc4)c23)c(COc2ccc(N3CCN([S+](=O)([O-])N(C)C)CC3)cc2)nn1C`, the apparent permeability (Papp) (commonly the rate of passage across a membrane or cell layer, normalised by area and donor concentration) was determined as 244 ×10⁻⁶ cm/s.

In turn, `CCCc1c(CC)c(=N)c2ccccc2n1C` yielded a Papp of 6.67 ×10⁻⁶ cm/s.

With `O=C1CCCC2=C1C1(CCCC1)N=C(Nc1nc3ccccc3o1)N2`, the apparent permeability (Papp) was determined as 294 ×10⁻⁶ cm/s.

The molecule `O=C(Nc1nc(-c2ccc(F)cc2)cs1)c1ccncc1NS(=O)(=O)c1ccc(F)cc1` displayed a Papp of 755 ×10⁻⁶ cm/s. This Papp lies about 2.6-fold higher than the previous one.

The molecule `Cc1nn2c(c1-c1ccccc1-c1ccccc1)N(Cc1ccc(O)cc1)CCC2` showed a Papp of 1.8 ×10⁻⁶ cm/s.

As to `c1ccc(-c2cn[nH]c2)cc1`, the Papp is 288 ×10⁻⁶ cm/s.

`Cc1ccc(OCCn2c(CCNC(=O)c3ccccc3Br)nc3ccccc32)cc1` came in with a Papp of 993 ×10⁻⁶ cm/s.

`Cc1cccc(C)c1Nc1c(-c2cccs2)nc2ncccn12` showed a Papp of 969 ×10⁻⁶ cm/s.

On to `Cc1ccc2[nH]c(-c3ccccc3)cc(=O)c2c1`, for which the apparent permeability (Papp) was found to be 74.9 ×10⁻⁶ cm/s.

Turning to `COc1ccccc1NC(=O)C1=C(C)Nc2c(C(=O)Nc3ccc(F)cc3)cnn2C1c1ccc(Cl)cc1` (configuration not stated), the apparent permeability (Papp) came out at 302 ×10⁻⁶ cm/s.

`O=C(Nc1nc(-c2ccccc2)cs1)c1ccncc1NS(=O)(=O)c1ccc(F)cc1F` came in with an apparent permeability coefficient (Papp) of 798 ×10⁻⁶ cm/s. Compared with the last molecule, the Papp is about 2.6-fold higher.

Regarding `Nc1ncnc2c1c(-c1cnc3[nH]ccc3c1)nn2C1CCCC1`, the apparent permeability (Papp) was > 1000 ×10⁻⁶ cm/s.

As to `Cc1ccnc(NC(=S)N2CCC(Nc3cccc(C(F)(F)F)c3)CC2)c1`, the Papp stood at 835 ×10⁻⁶ cm/s.

In turn, `CC(=O)c1ccc(N2CCN(C(=O)c3ccc4c(c3)CC(=O)N4)CC2)cc1` returned an apparent permeability coefficient (Papp) of 40.5 ×10⁻⁶ cm/s.

Regarding `CC(C)(O)Cn1c(NC(=O)c2ccc(-c3cn[nH]c3)s2)nc2cc(CN3CCOCC3)ccc21`, the apparent permeability coefficient (Papp) was 368 ×10⁻⁶ cm/s.

`CCOc1ccc(CCNC(=O)c2cc3sccc3n2CCN2CCN(C)CC2)cc1OCC`: the apparent permeability (Papp) was > 1000 ×10⁻⁶ cm/s.

Take `COc1cc(Cl)c(C)cc1Nc1c2c(nc3ccccc13)CCC2`: the Papp is > 1000 ×10⁻⁶ cm/s.

Take `O=[S+]([O-])(Nc1nccs1)c1ccc(NCc2cc(F)cc(Cl)c2O)cc1`: the Papp worked out at 18.1 ×10⁻⁶ cm/s.

`Cc1ccc2nc(NC3=NC(c4[nH]ncc4Cl)C4=C(CCCC4=O)N3)oc2c1` (configuration not stated) had an apparent permeability (Papp) of 997 ×10⁻⁶ cm/s.

`COCC(C)Nc1ncnc2c1cnn2-c1ccc(C)c(C)c1` (configuration not stated) returned a Papp of 690 ×10⁻⁶ cm/s.

For `Cc1cc(NC(=O)c2ccc(NC(=O)Cc3ccc(Cl)c(Cl)c3)cc2)no1`, the apparent permeability coefficient (Papp) is > 1000 ×10⁻⁶ cm/s.

In the case of `OCC(O)CCO/N=C1/C(c2c(O)[nH]c3ccccc23)=Nc2ccccc21` (configuration not stated), the Papp is 961 ×10⁻⁶ cm/s.

In turn, `Cc1ccc(S(=O)(=O)Nc2cnccc2C(=O)Nc2ccc(C#N)cc2)cc1` yielded an apparent permeability (Papp) of 69.6 ×10⁻⁶ cm/s.

For the molecule `O=C(Nc1ccc2c(N3CCCCC3)ncnc2c1)c1cc(F)cc(F)c1`, the Papp is > 1000 ×10⁻⁶ cm/s.

Molecule `O=C(Nc1ncccc1O)c1ccc(S(=O)(=O)Nc2ccccc2)cc1` came in with an apparent permeability coefficient (Papp) of 344 ×10⁻⁶ cm/s.

As for `Cc1cc(C)c(C(=O)Nc2cccc([S+](=O)([O-])N3CCCC3)c2)[nH]1`, the apparent permeability coefficient (Papp) was 948 ×10⁻⁶ cm/s.

In the case of `COc1ccc(C)cc1Nc1c2c(nc3ccccc13)CCC2`, the Papp was > 1000 ×10⁻⁶ cm/s.

`CN(C)c1cccc(-c2ncnc(N3CCC(C(N)=O)CC3)n2)c1`: the Papp was 244 ×10⁻⁶ cm/s.

Consider `CCc1ccc(NC(=O)c2[nH]c(C)c(C(C)=O)c2C)cc1S(=O)(=O)Nc1ccc(Br)cc1`, for which the apparent permeability coefficient (Papp) was < 1 ×10⁻⁶ cm/s.

`Cc1ccc(-c2cc(C(=O)Nc3ccc(S(=O)(=O)N(C)C)cc3)c3ccccc3n2)cc1C` showed a Papp of 23 ×10⁻⁶ cm/s.

For the molecule `COc1ccc(-n2nc(C3CCCN(C(=O)Cc4ccc(F)cc4)C3)[nH]c2=O)cc1` (configuration not stated), the apparent permeability (Papp) came out at 851 ×10⁻⁶ cm/s. This Papp is about 37-fold higher than that of the molecule before.

`CCOC(=O)Nc1cc(-c2ccc(C)c(NS(C)(=O)=O)c2)nn2c(C)nnc12` registered an apparent permeability (Papp) of 278 ×10⁻⁶ cm/s.

Molecule `CCc1ccccc1-n1c(SCC(=O)Nc2ccc(C)cc2)nc2n[nH]c(C)c2c1=N` showed a Papp of 95.3 ×10⁻⁶ cm/s.

`Cc1ccc(S(=O)(=O)Nc2ccccc2C(=O)Nc2cnc(-c3ccccc3)cn2)cc1`: the apparent permeability (Papp) is > 1000 ×10⁻⁶ cm/s.

Take `CC[C@@]1(O)C(=O)OCc2c1cc1n(c2=O)Cc2c-1nc1cc(F)c(C)c3c1c2[C@@H](N)CC3`: the Papp came to 370 ×10⁻⁶ cm/s.

Turning to `COC(=O)CNC(=O)c1nc(-c2ccc(F)cc2)c2ccccn12`, the Papp was > 1000 ×10⁻⁶ cm/s.

In turn, `Cc1c(O)ccc2c1OC(C)(C)CC2` returned a Papp of 540 ×10⁻⁶ cm/s.
